# Measured values from patent publication US20050020519A1, “Modulation of insulin-regulated aminopeptidase (irap)/angiotensin iv (at4) receptor activity” (priority 2001, published 2005).
# Where no end group is shown, it is not given here.
# Columns and labels:
# IRAP = molecular target: T1, IRAP (Homo sapiens, UniProt Q9UIQ6); assay: Degradation of peptides by IRAP expressed in HEK 293T cells, HPLC with mass spectrometric detection; assay type: biochemical
# T1 construct: expressed in transfected cells; host or cells: HEK 293T cells (solubilised membrane protein)
# Experimental: At each time point (0, 0.5, 1, 2, 4 & 6 hr), an aliquot containing 5 μg peptide was removed, and the reaction stopped by addition of 4 volumes methanol/1% trifluoroacetic acid (TPA). Samples were dried on a centrifugal vacuum evaporator prior to HPLC analysis with on-line mass spectrometric detector. […] Fragments were identified following mass spectral analysis, using Agilent ChemStation deconvolution software.
# rat hippocampal slices = assay: Potassium-evoked ^3H-choline release from rat hippocampal slices; assay type: cell-based; conditions: at 10^−7M
# Experimental: To determine the effect of IRAP inhibitors an acetylcholine release for rat hippocampal slices in vitro, rats were anaesthetized with sodium pentobarbitone, decapitated and the brain rapidly extracted and put on ice. The two sides of the hippocampus were then dissected, and stored in Krebs buffer on ice. The tissues were sectioned into 400 μm slices using a McI1wain slicer, and incubated with 10 μM of ^3H-choline in Krebs buffer for 20 min at 37° C. Following the incubation, the sections were transferred to Brandel superfusion chambers filled with carbogenated Krebs buffer, pH7.0 containing […] hemicholinium HC-3 to prevent choline reuptake. The slices were washed for 60 min at 37° C. with Krebs buffer at a flow rate of 500 μl/min. Superfusate samples were collected at 5 min intervals for the duration of the experiment. After a stable baseline was established, the hippocampal slices were depolarised by the addition of 30 mM KCl to the Krebs buffer and infused for 4 min (stimulation period S1). The tissue was then allowed to recover for 25 min before the next stimulation period (S2). To test the effect of […] […] Fractional ^3H-choline release, expressed as a ratio of S2/S1, was then calculated for each of the different peptides at the different doses.
# T1 sequence (Q9UIQ6 whole entry): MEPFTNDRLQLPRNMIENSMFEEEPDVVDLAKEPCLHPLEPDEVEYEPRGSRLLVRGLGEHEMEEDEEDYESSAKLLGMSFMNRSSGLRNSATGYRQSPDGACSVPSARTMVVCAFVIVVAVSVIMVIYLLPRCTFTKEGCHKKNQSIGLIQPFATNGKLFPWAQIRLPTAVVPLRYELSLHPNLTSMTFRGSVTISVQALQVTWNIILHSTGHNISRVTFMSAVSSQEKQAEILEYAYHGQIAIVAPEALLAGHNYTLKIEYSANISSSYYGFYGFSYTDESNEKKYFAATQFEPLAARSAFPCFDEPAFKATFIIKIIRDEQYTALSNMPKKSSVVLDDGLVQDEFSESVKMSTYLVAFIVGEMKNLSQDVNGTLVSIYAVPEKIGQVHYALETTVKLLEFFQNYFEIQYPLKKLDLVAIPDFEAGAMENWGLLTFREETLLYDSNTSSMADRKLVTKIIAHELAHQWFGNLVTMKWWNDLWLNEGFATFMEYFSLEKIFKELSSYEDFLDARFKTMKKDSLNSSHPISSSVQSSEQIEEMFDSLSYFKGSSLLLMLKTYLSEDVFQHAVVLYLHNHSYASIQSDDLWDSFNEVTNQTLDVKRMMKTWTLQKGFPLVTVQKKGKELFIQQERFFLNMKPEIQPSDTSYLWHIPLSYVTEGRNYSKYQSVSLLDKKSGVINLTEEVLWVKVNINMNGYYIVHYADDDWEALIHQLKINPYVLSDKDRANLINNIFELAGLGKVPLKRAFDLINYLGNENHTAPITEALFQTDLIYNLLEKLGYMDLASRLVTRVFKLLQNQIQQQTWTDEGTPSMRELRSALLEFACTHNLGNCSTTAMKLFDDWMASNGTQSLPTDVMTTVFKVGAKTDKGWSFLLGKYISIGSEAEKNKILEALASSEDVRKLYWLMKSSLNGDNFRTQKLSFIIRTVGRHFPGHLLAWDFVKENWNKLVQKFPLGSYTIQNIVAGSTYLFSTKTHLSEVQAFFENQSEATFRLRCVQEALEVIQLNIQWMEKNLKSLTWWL
sequence,measurement,setting,value
LVVYPWTQRF,Substrate disappearance over 4 hr,"IRAP; 37° C., hIRAP transfected HEK 293T membranes, (=UT) equals untransfected control cells",14% (=UT)
same,Products Identified,IRAP; incubation at 37° C. with solubilized membrane protein from hIRAP transfected HEK 293T cells,VVYPWTQRF
same,maximum effect on potassium-evoked ^3H-choline release,rat hippocampal slices,180 % of control
